Assays:
Experiment in all cases: Zone of inhibition screen, 96 well agar array format
Assay type in all cases: cell-based
Design in all cases: scale not given here
Details in all cases: zone of inhibition relative to 1 mg/ml p-chlorobiphenylvancomycin
[1] = tested on: S. aureus (ATCC 29213)
How it was run: (§1)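 Each compound was tested for antibacterial activity against a shared bacterial panel, with screening carried out on agar in a 96-well array.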

[2] = tested on: E. faecalis (CL 4877)
How it was run: as §1

[3] = tested on: S. epidermidis (ATCC 12228)
How it was run: as §1

SMILES	zone score, S. aureus ATCC 29213 [1]	zone score, E. faecalis CL 4877 [2]	zone score, S. epidermidis ATCC 12228 [3]
CC1OC(OC2C(Oc3c4cc5cc3Oc3ccc(cc3Cl)C(O)C3NC(=O)C(NC(=O)C5NC(=O)C(CC(N)=O)NC(=O)C(NC(=O)C5CSC(=O)N5)C(O)c5ccc(c(Cl)c5)O4)c4ccc(O)c(c4)-c4c(O)cc(O)cc4C(C(=O)O)NC3=O)OC(CO)C(O)C2O)CC(C)(NCc2ccc(-c3ccc(Cl)cc3)cc2)C1O (stereo not drawn) [Compound 224]	2	2	2
CC1OC(OC2C(Oc3c4cc5cc3Oc3ccc(cc3Cl)C(O)C3NC(=O)C(NC(=O)C5NC(=O)C(CC(N)=O)NC(=O)C(NC(=O)c5cccn5C)C(O)c5ccc(c(Cl)c5)O4)c4ccc(O)c(c4)-c4c(O)cc(O)cc4C(C(=O)O)NC3=O)OC(CO)C(O)C2O)CC(C)(NCc2ccc(-c3ccc(Cl)cc3)cc2)C1O (stereo not drawn) [Compound 229]	2	2	2
CC1OC(OC2C(Oc3c4cc5cc3Oc3ccc(cc3Cl)C(O)C3NC(=O)C(NC(=O)C5NC(=O)C(CC(N)=O)NC(=O)C(NC(=O)Cc5ccc(Cl)cc5Cl)C(O)c5ccc(c(Cl)c5)O4)c4ccc(O)c(c4)-c4c(O)cc(O)cc4C(C(=O)O)NC3=O)OC(CO)C(O)C2O)CC(C)(NCc2ccc(-c3ccc(Cl)cc3)cc2)C1O (stereo not drawn) [Compound 234]	2	2	2
COc1ccc(CCC(=O)NC2C(=O)NC(CC(N)=O)C(=O)NC3C(=O)NC4C(=O)NC(C(=O)NC(C(=O)O)c5cc(O)cc(O)c5-c5cc4ccc5O)C(O)c4ccc(c(Cl)c4)Oc4cc3cc(c4OC3OC(CO)C(O)C(O)C3OC3CC(C)(NCc4ccc(-c5ccc(Cl)cc5)cc4)C(O)C(C)O3)Oc3ccc(cc3Cl)C2O)cc1OC (stereo not drawn) [Compound 245]	2	2	2
COc1ccc(C(=O)NC2C(=O)NC(CC(N)=O)C(=O)NC3C(=O)NC4C(=O)NC(C(=O)NC(C(=O)O)c5cc(O)cc(O)c5-c5cc4ccc5O)C(O)c4ccc(c(Cl)c4)Oc4cc3cc(c4OC3OC(CO)C(O)C(O)C3OC3CC(C)(NCc4ccc(-c5ccc(Cl)cc5)cc4)C(O)C(C)O3)Oc3ccc(cc3Cl)C2O)cc1OC (stereo not drawn) [Compound 253]	2	2	2
CCOCCC(=O)N[C@H]1C(=O)N[C@@H](CC(N)=O)C(=O)N[C@H]2C(=O)N[C@H]3C(=O)N[C@H](C(=O)N[C@@H](C(=O)O)c4cc(O)cc(O)c4-c4cc3ccc4O)[C@H](O)c3ccc(c(Cl)c3)Oc3cc2cc(c3O[C@@H]2O[C@H](CO)[C@@H](O)[C@H](O)[C@H]2O[C@@H]2C[C@@](C)(NCc3ccc(-c4ccc(Cl)cc4)cc3)[C@@H](O)[C@@H](C)O2)Oc2ccc(cc2Cl)[C@H]1O [Compound 258]	2	2	2
CC1OC(OC2C(Oc3c4cc5cc3Oc3ccc(cc3Cl)C(O)C3NC(=O)C(NC(=O)C5NC(=O)C(CC(N)=O)NC(=O)C(NC(=O)c5cccc(O)c5)C(O)c5ccc(c(Cl)c5)O4)c4ccc(O)c(c4)-c4c(O)cc(O)cc4C(C(=O)O)NC3=O)OC(CO)C(O)C2O)CC(C)(NCc2ccc(-c3ccc(Cl)cc3)cc2)C1O (stereo not drawn) [Compound 261]	2	2	2
CC(O)CC(=O)N[C@H]1C(=O)N[C@@H](CC(N)=O)C(=O)N[C@H]2C(=O)N[C@H]3C(=O)N[C@H](C(=O)N[C@@H](C(=O)O)c4cc(O)cc(O)c4-c4cc3ccc4O)[C@H](O)c3ccc(c(Cl)c3)Oc3cc2cc(c3O[C@@H]2O[C@H](CO)[C@@H](O)[C@H](O)[C@H]2O[C@@H]2C[C@@](C)(NCc3ccc(-c4ccc(Cl)cc4)cc3)[C@@H](O)[C@@H](C)O2)Oc2ccc(cc2Cl)[C@H]1O (stereo partly drawn) [Compound 262]	2	2	2
CC1OC(OC2C(Oc3c4cc5cc3Oc3ccc(cc3Cl)C(O)C3NC(=O)C(NC(=O)C5NC(=O)C(CC(N)=O)NC(=O)C(NC(=O)c5ccc(S(C)(=O)=O)cc5)C(O)c5ccc(c(Cl)c5)O4)c4ccc(O)c(c4)-c4c(O)cc(O)cc4C(C(=O)O)NC3=O)OC(CO)C(O)C2O)CC(C)(NCc2ccc(-c3ccc(Cl)cc3)cc2)C1O (stereo not drawn) [Compound 264]	2	0	2
CC(=O)Oc1ccc(C(=O)NC2C(=O)NC(CC(N)=O)C(=O)NC3C(=O)NC4C(=O)NC(C(=O)NC(C(=O)O)c5cc(O)cc(O)c5-c5cc4ccc5O)C(O)c4ccc(c(Cl)c4)Oc4cc3cc(c4OC3OC(CO)C(O)C(O)C3OC3CC(C)(NCc4ccc(-c5ccc(Cl)cc5)cc4)C(O)C(C)O3)Oc3ccc(cc3Cl)C2O)cc1 (stereo not drawn) [Compound 266]	2	2	2
CC1OC(OC2C(Oc3c4cc5cc3Oc3ccc(cc3Cl)C(O)C3NC(=O)C(NC(=O)C5NC(=O)C(CC(N)=O)NC(=O)C(NC(=O)c5ccc(S(N)(=O)=O)cc5)C(O)c5ccc(c(Cl)c5)O4)c4ccc(O)c(c4)-c4c(O)cc(O)cc4C(C(=O)O)NC3=O)OC(CO)C(O)C2O)CC(C)(NCc2ccc(-c3ccc(Cl)cc3)cc2)C1O (stereo not drawn) [Compound 269]	2	2	2
CC1OC(OC2C(Oc3c4cc5cc3Oc3ccc(cc3Cl)C(O)C3NC(=O)C(NC(=O)C5NC(=O)C(CC(N)=O)NC(=O)C(NC(=O)c5ccc(F)cc5)C(O)c5ccc(c(Cl)c5)O4)c4ccc(O)c(c4)-c4c(O)cc(O)cc4C(C(=O)O)NC3=O)OC(CO)C(O)C2O)CC(C)(NCc2ccc(-c3ccc(Cl)cc3)cc2)C1O (stereo not drawn) [Compound 270]	2	2	2
CC1OC(OC2C(Oc3c4cc5cc3Oc3ccc(cc3Cl)C(O)C3NC(=O)C(NC(=O)C5NC(=O)C(CC(N)=O)NC(=O)C(NC(=O)c5c[nH]cn5)C(O)c5ccc(c(Cl)c5)O4)c4ccc(O)c(c4)-c4c(O)cc(O)cc4C(C(=O)O)NC3=O)OC(CO)C(O)C2O)CC(C)(NCc2ccc(-c3ccc(Cl)cc3)cc2)C1O (stereo not drawn) [Compound 272]	2	2	2
CC1OC(OC2C(Oc3c4cc5cc3Oc3ccc(cc3Cl)C(O)C3NC(=O)C(NC(=O)C5NC(=O)C(CC(N)=O)NC(=O)C(NC(=O)c5ccc(N)cc5O)C(O)c5ccc(c(Cl)c5)O4)c4ccc(O)c(c4)-c4c(O)cc(O)cc4C(C(=O)O)NC3=O)OC(CO)C(O)C2O)CC(C)(NCc2ccc(-c3ccc(Cl)cc3)cc2)C1O (stereo not drawn) [Compound 274]	2	2	2

Reference: US6518243B1, “Desleucyl glycopeptide antibiotics and methods of making same” (Trustees of Princeton University, priority 1999, dated 2003)
